*1 amine or outer side, *2 acyl side, *3 side chain or, on linkers, in order; H or OH if unused. Where a SMILES comes first, the peptide text is derived from it. [ ]: non-standard residue; d: D form. X1 = C[N+](C)(C)CCOP(=O)([O-])Oc1ccc(N=Nc2cc(C[C@H](N[*:1])C(=O)[*:2])ccc2O)cc1
What was measured:
Type in all cases: in vivo
male C57BL/6 mice = test: DSS induced acute colitis in mice
Method: The effect of PC-tuftsin derivative (SEQ ID NO: 25) on colitis development was determined in a mouse model subjected to induction of acute colitis by dextran sulfate sodium (DSS) treatment. Specifically, induction of colitis was carried out in male C57BL/6 mice (“colitis mice”) by supplementing the drinking water (2.5% wt/v) for five days with DSS (mol. wt. 36,000-50,000).
Two groups of mice were fed daily via oral ingestion using a feeding-needle, with PC-tuftsin derivative at a concentration of 500 μg/0.1 ml per mouse (treatment; n=10), or PBS (control; n=10). These compounds were given during 11 days starting two days before DSS administration.
Assessment of colitis development was performed by monitoring body weight, rectal bleeding, stool consistency, and survival every second day. Intestinal bleeding was followed by Hemoccult test and observation of bleeding signs on the anus or gross bleeding. The daily disease activity index (DAI) was calculated by grading on a scale of zero to four the following parameters: change in weight (0, <1%; 1, 1-5%; 2, 5-10%; 3, 10— 15%; and 4, >15%), intestinal bleeding (0, negative; 4, positive), and stool consistency (0, normal; 2, loose stools; 4, diarrhea). The combined scores were then divided by three to obtain the final disease activity index. Ten days following disease induction, mice were sacrificed and the large intestine was collected and evaluated for colon length and microscopic colonic damage. For microscopic scoring, the proximal, medial, and distal portions of the colon and the cecum were fixed in 10% phosphate-buffered formalin. Paraffin-embedded sections were stained with H&E. The degree of histological damage and inflammation was graded in a blinded fashion by an expert pathologist

colon lysates = test: Cytokine expression in colon lysates of colitis mice (immunoblot)
Method: The expression of the proinflammatory cytokines (TNFα, IL-17, IL-113) and anti-inflammatory cytokine IL-10 was analyzed by immunoblot in colon lysates.

NZBxW/F1 lupus mice = test: Circulating anti-dsDNA antibodies in lupus mice treated with TD-PC (ELISA); conditions: sera at 30 weeks, dilution 1:800; between groups incl. PBS
Method: Titers of circulating anti-dsDNA antibodies in the sera of control and treated mice were monitored during the development of lupus, and their levels were measured every 3 weeks. […] FIG. 23 presents the anti dsDNA antibodies titers in the sera at the age 30 weeks at a dilution of 1:800.

CIA mice [1] = test: Arthritis score in CIA mice treated orally or s.c. with TD-PC; conditions: day 31
Source text: The main characteristic of rheumatoid arthritis is joint deformation due to high inflammation. The TD-PC effect on arthritis score in CIA mice was monitored. […] Arthritis score was lower in both groups of TD-PC treatment (oral and s.c.) starting two weeks after disease induction—day 14, until the mice were sacrificed—day 31.

CIA mice [2] = test: Anti-collagen type II antibodies in sera of CIA mice; conditions: day 30, sera dilution 1:200
Method: Titers of anti-collagen type II antibodies in mice sera at a dilution of 1:200 (OD at 405 nm) were measured at day 30 after disease induction while arthritis was fully manifested (FIG. 27). […] The mean OD level of the anti-collagen type II antibodies in the mice treated with TD-PC per os was 0.685±0.09 while the corresponding mean OD level in control mice treated with PBS per os was 1.09±0.17. Furthermore, the mean OD level of the anti-collagen type II antibodies in mice treated with TD-PC s.c was 0.615±0.08, whereas the corresponding mean OD level mice treated with PBS s.c was 1.03±0.13 (p<0.001).

[3] = test system: splenocytes derived from CIA mice; test: Cytokine secretion in-vitro by splenocytes of CIA mice (oral and s.c. TD-PC); conditions: splenocyte culture fluids
Method: Cytokines play a major role in synovial inflammation while the major ones are IL-17, TNFα and IL-1. Secretion of pro-inflammatory (TNFα, IL-1β, IL-17) and anti-inflammatory cytokines (IL-10) by splenocytes derived from CIA mice treated with TD-PC or PBS (control), in-vitro, was evaluated.
Furthermore, TD-PC increased the level of anti-inflammatory cytokine IL-10 in a significant manner compared to control mice (p<0.0001; FIG. 28D and Table 3).

[4] = test system: CD4+CD25+FOXP3+ Treg cells; test: Treg expansion in splenocytes of CIA mice (FACS), Example 16; conditions: vs PBS
Source text: The frequency of CD4+CD25+FOXP3+ Treg cells subset in isolated mice splenocytes, following treatment with TD-PC or control (PBS) is elucidated in FIGS. 29A-29B. […] Representative data of the CD4+CD25+FOXP3+ levels in splenocytes derived from TD-PC and PBS treated mice gating on CD4+ T cells are presented in FIG. 29A and the corresponding statistics is presented in FIG. 29B.

[5] = test system: splenocytes derived from CIA mice; test: Cytokine secretion in-vitro by splenocytes of mice with established CIA; conditions: splenocyte culture fluids
Method: Secretion, in-vitro, of pro-inflammatory and anti-inflammatory cytokines by splenocytes derived from CIA mice treated with TD-PC, PBS, TD, PC, TD+PC or untreated mice was evaluated (FIGS. 32A-32D). The following cytokines secretions were examined: pro-inflammatory IL-1β (FIG. 32A), IL-17 (FIG. 32B), IL-6 (FIG. 32C), TNF-α (FIG. 32D) and anti-inflammatory IL-10 (FIG. 32E).

[6] = test system: CD4+CD25+FOXP3+ Treg cells; test: Treg expansion in splenocytes of mice with established CIA (FACS); conditions: isolated splenocytes; PBS 1.4%
Source text: The frequency of CD4+CD25+FOXP3+ Treg cells subset in isolated splenocytes from mice treated with TPC, PBS, TD (SEQ ID NO: 25), PC, TD+PC or untreated is elucidated in FIGS. 33A and 33B. […] Representative data of the CD4+CD25+FOXP3+ levels in splenocytes derived from TD-PC, PBS, TD (SEQ ID NO: 25), PC and TD+PC treated mice and the untreated group, gating on CD4+ T cells are presented in FIG. 33B.

[7] = 500 μg/0.1 ml oral daily, vs PBS

C[C@@H](O)[C@H](N)C(=O)N[C@@H](CCCCN)C(=O)N1CCC[C@H]1C(=O)N[C@@H](CCCNC(=N)N)C(=O)NCC(=O)N[C@@H](Cc1ccc(O)c(N=Nc2ccc(OP(=O)([O-])OCC[N+](C)(C)C)cc2)c1)C(=O)O [TD-PC, Thr-Lys-Pro-Arg-Gly-Tyr-PC] (H-TKPRG[X1]-OH)
daily disease activity index (DAI) score (male C57BL/6 mice; 500 μg/0.1 ml oral daily, day 8, PBS 2.6 after 5 days): around 0.9 | loss of weight (male C57BL/6 mice; [7]): significantly low | rectal bleeding (male C57BL/6 mice; [7]): significantly low | survival (male C57BL/6 mice; [7]): significantly higher survival | colon length (male C57BL/6 mice; PBS mice five-six cm): eight | histological analysis of colon sections (H&E) (male C57BL/6 mice; vs PBS): attenuated colon destruction | IL-1β expression in colon lysates (colon lysates): suppressed | IL-10 expression in colon lysates (colon lysates): Significant increased | IL-17 expression in colon lysates (colon lysates): suppressed | TNFα expression in colon lysates (colon lysates): suppressed | titers of circulating anti-dsDNA antibodies (NZBxW/F1 lupus mice): No statistically significant change | mean arthritis score (CIA mice [1]; TD-PC treated groups (oral and s.c.), control 11.8): 1.5 (ranged from 0 to 4) | mean arthritis score (CIA mice [1]; oral, PBS oral 12.6±1.14): 1.6±1.5 | mean arthritis score (CIA mice [1]; s.c., PBS s.c 11±1.22): 1.4±0.84 | mean OD level of anti-collagen type II antibodies (CIA mice [2]; per os, PBS 1.09±0.17): 0.685±0.09 OD at 405 nm | mean OD level of anti-collagen type II antibodies (CIA mice [2]; s.c, PBS 1.03±0.13): 0.615±0.08 OD at 405 nm | IL-1β ([3]; oral): 183 pg/mL | IL-10 ([3]; oral): 3605 pg/mL | IL-17 ([3]; oral): 505 pg/mL | TNFα ([3]; oral): 633 pg/mL | IL-1β ([3]; s.c.): 198 pg/mL | IL-10 ([3]; s.c.): 2917 pg/mL | IL-17 ([3]; s.c.): 497 pg/mL | TNFα ([3]; s.c.): 621 pg/mL | CD4+CD25+FOXP3+ Treg cells in isolated splenocytes [4]: striking increase | mean IL-10 level ([5]; PBS 298): 1745 pg/mL | mean IL-6 level ([5]; PBS 840): 480 pg/mL | mean IL-1β level ([5]; PBS 883): 320 pg/mL | mean TNF-α level ([5]; PBS 1073): 342 pg/mL | mean IL-17 level ([5]; PBS 2170): 1770 pg/mL | mean percentage of CD4+CD25+FOXP3+ Treg cells [6]: 8.75%

— patent publication US12350308B2, “Phosphorylcholine conjugates and uses thereof” (TPCERA LTD., priority 2013, dated 2025)
